Test results: article PMC11243672, “New 3-(Dibenzyloxyphosphoryl)isoxazolidine Conjugates of N1-Benzylated Quinazoline-2,4-diones as Potential Cytotoxic Agents against Cancer Cell Lines” (Molecules, 2024)
In brackets after ≈: the same amount, converted by molar mass. Entries after “also recorded” stand apart in the source; their conditions may differ.

Experiments:
[1] = test system: human hepatoma cells (HepG2); assay: Safety study in vitro (MTS viability), HepG2; format: cell-based; details: 0.205–50 μM, 72 h
Experimental: (§1) In drug development, particular attention should be paid to studying the safety profile of compounds. Promising drug candidates should not cause adverse effects on essential organ systems like the liver, kidney, or healthy cells in general. Systemic toxicity of the compound is the main factor limiting its therapeutic application and efficiency. In our study, a preliminary study on nephrotoxicity and hepatotoxicity was evaluated in human embryonic kidney cells (HEK293, ATCC® CRL1573™) and human hepatoma cells (HepG2, ATCC® HB8065™), respectively. HEK293 is commonly used to evaluate the cytotoxicity of nephrotoxic compounds [42]. HepG2 is a well-established in vitro human cell system to study liver toxicity. We also used healthy human skin fibroblast (HSF) to extend the cytotoxicity profile. All three cell lines were cultured in DMEM (Gibco no. 61965-026, UK) supplemented with 10% FBS (Gibco no. 10500-064, UK). For the experiment, cells were seeded (8 × 10^3 cells/100μL/well) in transparent 96-well plates (FALCON no. 353072, Corning, Durham, […], USA) and cultured overnight. […] DOX was a reference compound that adversely affected the liver, kidney, and healthy cells. Treatment with compounds was carried out for 72 h. Cell viability was examined using an MTS-based CellTiter96® AQueous One Solution Cell Proliferation Assay (Promega, Madison, WI, USA) following the manufacturer’s protocol.

[2] = test system: human embryonic kidney cells (HEK293); assay: Safety study in vitro (MTS viability), HEK293; format: cell-based; details: 0.205–50 μM, 72 h
Experimental: as §1

[3] = test system: prostate cancer cells (PC-3); assay: MTS-based cytotoxicity assay, PC-3; format: cell-based, human; details: Homo sapiens, 72 h, 72 h treatment, 0.205–50 μM, mean ± SEM
Experimental: (§2) In this study, we applied the most extensively used MTS-based assay, which provides a valuable tool for determining cell viability by evaluating metabolic activity. The cytostatic activity of the tested compounds was defined as the half-maximal inhibitory concentration (IC50) causing a 50% decrease in the metabolic activity of the cells. It was determined against breast cancer (MCF-7), fibrosarcoma (HT-1080), and prostate cancer (PC-3) cells.
(§3) The tested compounds were tested against three different human cancer cell lines (breast adenocarcinoma MCF-7 ATCC® HTB-22^TM, fibrosarcoma HT-1080 ATCC® CCL121^TM, and prostate adenocarcinoma PC-3 ATCC® CRL-1435^TM). For the cell viability experiment, cells were seeded in transparent 96-well plates (FALCON no. 353072, Corning, Durham, NC, USA) in MEM (Gibco no. 31095-029, UK) supplemented with 10% heat-inactivated FBS (Gibco no. 10500-064, UK). The cell seeding density was as follows: MCF-7 12,000 cells/well, HT-1080 7000 cells/well, PC-3 10,000 cells/well. Cells were seeded one day before treatment with the tested compounds and cultured overnight. The confluence on the treatment day was around 30%. The tested compounds were dissolved in DMSO as 10 mM stock solutions and kept under −4 °C. On the day of experimentation, the medium was removed and replaced with a fresh one that contained the following: (1) dimethylsulfoxide (DMSO < 0.1%, vehicle control (Veh)); (2) increasing the concentration of compounds (0.205–50 μM, performed as a 2.5-fold serial dilution for dose–response analysis). Treatment with compounds was carried out for 72 h. Each treatment was replicated three times in a single experiment, with three separate experiments conducted. (n = 9). When significant variability in the results occurred, an additional test was performed on certain compounds. During the incubation, the cells were examined under an inverted microscope to check if the compounds had not precipitated in the culture medium. The inhibitory effect of compounds on the cell was examined using an MTS-based assay (Promega, Madison, WI, USA) following the manufacturer’s protocol. The absorbance was measured at 490 nm using Tecan Spark’s multimode plate reader (Tecan, Männedorf, Switzerland). A reference wavelength of 630 nm was used to subtract the background. IC50 values were calculated by fitting a non-linear regression to a sigmoidal dose–response curve in GraphPad Prism version 8.0.1.

[4] = test system: fibrosarcoma cells (HT-1080); assay: MTS-based cytotoxicity assay, HT-1080; format: cell-based, human; details: Homo sapiens, HT-1080, 72 h, 72 h treatment, 0.205–50 μM, mean ± SEM
Experimental: as §2, §3

[5] = test system: breast cancer cells (MCF-7); assay: MTS-based cytotoxicity assay, MCF-7; format: cell-based, human; details: Homo sapiens, MCF7, 72 h, 72 h treatment, 0.205–50 μM, mean ± SEM
Experimental: as §2, §3

[6] = test system: PC-3 cell line; assay: IncuCyte caspase-3/7 apoptosis induction assay; format: cell-based, human; details: PC-3 cells, tested at 1 µM and 10 µM, monitored for 28 h; staurosporine 1 µM positive control
Experimental: Apoptosis induction tests were conducted using the IncuCyte system to test cells (PC-3) in an in vitro culture. […] The compounds were tested at 1 µM and 10 µM concentrations, and apoptosis was monitored for 28 h (Figure 6). The incubation time was selected based on the induction of apoptosis in the control cells. Staurosporine (STA) at a concentration of 1 µM was used as the positive control, while the negative control cells were treated with 0.1% DMSO (vehicle control). […].
Apoptosis was monitored in real time using the Incucyte® Caspase-3/7 for […] Dyes (Cat. No. 4776, Sartorius, Ann Arbor, MI, USA). The principle of this test is based on binding a DNA intercalating dye with the activation motif (DEVD) of caspase-3/7, allowing a quantitative analysis of cells to undergo caspase-3/7-mediated apoptosis in real time. For the experiment, PC3 cells were seeded in a black 96-well plate with transparent bottom (cat. no. 165305, ThermoScientific, Waltham, MA, USA) at 10,000 cells/well density and cultured overnight. The next day, the medium was removed, and the cells were treated with the tested compound. […] The IncuCyte S3 imaging system recorded kinetic measures of the number of caspase-3/7 positive cells. Repeat scanning to record phase and fluorescence images were every 2 h, for up to 28 h. […]

[7] = test system: human skin fibroblast (HSF); assay: Safety study in vitro (MTS viability), HSF; format: cell-based; details: 0.205–50 μM, 72 h
Experimental: as §1

[8] = test system: breast cancer cell line (MCF-7); parameters: method as in doi:10.1016/j.tet.2006.12.076; details: cancer cell line growth inhibition; cited from earlier work
[9] = test system: colorectal adenoma cancer cell line (HT-29); parameters: method as in doi:10.1016/j.tet.2006.12.076; details: cancer cell line growth inhibition; cited from earlier work
[10] = test system: human lymphocyte cell line (CEM); parameters: method as in PMID 30060562; details: anticancer activity; cited from earlier work
[11] = test system: Jurkat cell line; parameters: method as in PMID 20813537; details: antitumor effect; cited from earlier work
[12] = test system: HepG2; parameters: method as in PMID 32510731; details: antiproliferative activity; cited from earlier work
[13] = test system: HCT-116; parameters: method as in PMID 32510731; details: antiproliferative activity; cited from earlier work
[14] = test system: MCF-7; parameters: method as in PMID 32510731; details: antiproliferative activity; cited from earlier work
[15] = test system: PARP1 (poly(ADP-ribose)polymerase 1); parameters: method as in PMID 37843892; details: cited from earlier work
[16] = test system: PARP2 (poly(ADP-ribose)polymerase 2); parameters: method as in PMID 37843892; details: cited from earlier work
[17] = test system: HCT-116; parameters: method as in PMID 37903949; details: cytotoxic activity; cited from earlier work
[18] = test system: epidermoid carcinoma cell line (KB); details: cytotoxicity; cited from earlier work
[19] = test system: murine leukemia cell line (L1210); details: cytotoxicity; cited from earlier work

In the case of `O=c1c2ccccc2n(C[C@@H]2C[C@@H](P(=O)(OCc3ccccc3)OCc3ccccc3)N(Cc3ccccc3)O2)c(=O)n1Cc1ccccc1F` (relative stereo) [trans-16b, Dibenzyl cis- and trans-5-((3-(2-fluorobenzyl)-3,4-dihydro-2,4-dioxoquinazolin-1(2H)-yl)methyl)-2-benzylisoxazolidin-3-yl-3-phosphonate], the “Cell viability, HepG2” value [1] is reported as “did not affect cell viability”, the “Cell viability, HEK293” value [2] is reported as “did not affect cell viability” and the IC50 [3] is reported as 9.84 ± 3.69 µM. The IC50 [4] was 34.6 ± 5.3 µM, the IC50 [5] was 78.7 ± 2.35 µM and the “Induction of apoptosis (caspase-3/7 positive cells)” value [6] was “comparable to that induced with staurosporine; also recorded: highest induction of apoptosis; also recorded: strongly induced apoptosis”. For the same compound, the “Cell viability, HSF” value [7] was “no adverse effect was observed”.

For `O=c1[nH]cc(F)c(=O)[nH]1` [5-Fluorouracil], the “GI, MCF-7” value [8] is listed as 31%, the “GI, HT-29” value [9] is listed as 34% and the IC50 [10] is listed as 18 ± 5 µM.

In the case of `Cc1cn(C2CC(c3ccccc3Cl)N(C)O2)c(=O)[nH]c1=O` (stereo not shown) [Compound 5], the IC50 [11] is listed as 8.8 ± 4.4 µM.

For `O=C(Cn1c(=O)c2ccccc2n(Cc2ccccc2)c1=O)Nc1ccc(C(=O)N/N=C/c2ccc(Cl)cc2)cc1` [Compound 14], the GI50 [12] is listed as 9.16 ± 0.8 µM, the GI50 [13] is listed as 5.69 ± 0.4 µM and the GI50 [14] is listed as 5.27 ± 0.2 µM.

For `O=C(c1cc(Cn2c(=O)[nH]c(=O)c3ccccc32)ccc1F)N1CCN(C2CCCC2)C(=O)C1` [Compound 15], the PARP1 inhibition [15] is listed as “inhibited” and the PARP2 inhibition [16] is listed as “inhibited”.

For `COc1cc2nccc(Oc3ccc(NC(=O)C4(C(=O)Nc5ccc(F)cc5)CC4)cc3)c2cc1OC` [cabozantinib, reference compound], the IC50 [17] is given as 16.4 ± 0.86 µM.

For `C(=C/CCCCN1OC(CCCCCCCCc2cccnc2)C2CCCC21)/CCCCCCCCCc1cccnc1` (stereo not shown) [pyrinodemin A], the “IC50, KB” value [18] is listed as 0.5 µg/mL (≈ 0.85 µM) and the “IC50, L1210” value [19] is listed as 0.058 µg/mL (≈ 0.0987 µM).
